Experimental findings from US9169310B2 (Zealand Pharma A/S, priority 2010, dated 2015) are described below.

Starred links: 1 amine or outer side, 2 acyl side, 3 side chain; linkers in the order of their positions; H or OH if unused. Non-standard residues stand in square brackets, D forms with d. Residues, ends and D or L forms follow the SMILES beside them. Groups on a side chain read outwards from the residue. *: point of attachment. γGlu = O=C(O)[C@H](CCC(=O)[*:2])N[*:1]; X1 = O=C([C@H](Cn1cncn1)N[*:1])[*:2]; Palmitoyl = CCCCCCCCCCCCCCCC(=O)*; Aib = CC(C)(N)C(=O)O

The assay deals with T1, human GLP-1R (Homo sapiens, UniProt P43220).
T1 construct: expressed in transfected cells
T1 sequence (P43220 24-463): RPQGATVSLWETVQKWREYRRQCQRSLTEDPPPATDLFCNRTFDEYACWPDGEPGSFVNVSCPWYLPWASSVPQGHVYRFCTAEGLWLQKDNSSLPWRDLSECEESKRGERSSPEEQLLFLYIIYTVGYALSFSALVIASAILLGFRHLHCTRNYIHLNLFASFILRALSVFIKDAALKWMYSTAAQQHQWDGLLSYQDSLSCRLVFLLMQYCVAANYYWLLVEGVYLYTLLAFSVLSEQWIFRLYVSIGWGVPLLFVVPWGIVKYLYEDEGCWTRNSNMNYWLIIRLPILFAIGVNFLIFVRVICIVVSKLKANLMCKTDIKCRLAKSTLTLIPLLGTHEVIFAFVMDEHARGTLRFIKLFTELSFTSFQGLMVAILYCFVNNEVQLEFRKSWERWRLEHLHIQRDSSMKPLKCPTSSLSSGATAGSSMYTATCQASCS
As to the kind of experiment: GLP-1 receptor efficacy assay (cAMP formation, FlashPlate cAMP kit). It is filed as cell-based. Conditions: HEK293 cells expressing human GLP-1R; cAMP formed, 15 min at 37° C. On the procedure:
The 5′-end primers additionally encoded a near Kozak consensus sequence to ensure efficient translation.
48 hr after transfection, cells were seeded for limited dilution cloning and selected with 1 mg/ml G418 in the culture medium.
Background: cAMP levels reflect the balance of adenylyl cyclase and phosphodiesterase activity.
On to `CCCCCCCCCCCCCCCC(=O)N[C@@H](CCC(=O)NCCCC[C@H](NC(=O)[C@H](CO)NC(=O)[C@H](CC(=O)O)NC(=O)[C@H](CC(C)C)NC(=O)[C@H](Cc1ccc(O)cc1)NC(=O)[C@H](CCCCN)NC(=O)[C@H](CO)NC(=O)[C@H](Cc1ccc(O)cc1)NC(=O)[C@H](CC(=O)O)NC(=O)[C@H](CO)NC(=O)[C@@H](NC(=O)[C@H](Cc1ccccc1)NC(=O)[C@@H](NC(=O)CNC(=O)[C@H](Cn1cncn1)NC(=O)C(C)(C)NC(=O)[C@@H](N)Cc1c[nH]cn1)[C@@H](C)O)[C@@H](C)O)C(=O)N[C@@H](C)C(=O)N[C@@H](C)C(=O)N[C@@H](Cc1c[nH]cn1)C(=O)N[C@@H](CC(=O)O)C(=O)N[C@@H](Cc1ccccc1)C(=O)N[C@H](C(=O)N[C@@H](CCC(=O)O)C(=O)N[C@@H](Cc1c[nH]c2ccccc12)C(=O)N[C@@H](CC(C)C)C(=O)N[C@@H](CC(C)C)C(=O)N[C@@H](CO)C(=O)N[C@@H](C)C(N)=O)C(C)C)C(=O)O` [Compound 25] (H-H[Aib][X1]GTFTSDYSKYLDSK([γGlu-Palmitoyl])AAHDFVEWLLSA-NH2), for which the EC50 was 0.09 nM. This counts as picomolar.

`CCCCCCCCCCCCCCCC(=O)N[C@@H](CCC(=O)NCCCC[C@H](NC(=O)[C@H](CO)NC(=O)[C@H](CC(=O)O)NC(=O)[C@H](CC(C)C)NC(=O)[C@H](Cc1ccc(O)cc1)NC(=O)[C@H](CCCCN)NC(=O)[C@H](CO)NC(=O)[C@H](Cc1ccc(O)cc1)NC(=O)[C@H](CC(=O)O)NC(=O)[C@H](CO)NC(=O)[C@@H](NC(=O)[C@H](Cc1ccccc1)NC(=O)[C@@H](NC(=O)CNC(=O)[C@H](Cc1c[nH]cn1)NC(=O)C(C)(C)NC(=O)[C@@H](N)Cc1c[nH]cn1)[C@@H](C)O)[C@@H](C)O)C(=O)N[C@@H](C)C(=O)N[C@@H](C)C(=O)N[C@@H](Cc1c[nH]cn1)C(=O)N[C@@H](CC(=O)O)C(=O)N[C@@H](Cc1ccccc1)C(=O)N[C@H](C(=O)N[C@@H](CCC(=O)O)C(=O)N[C@@H](Cc1c[nH]c2ccccc12)C(=O)N[C@@H](CC(C)C)C(=O)N[C@@H](CC(C)C)C(=O)N[C@@H](CO)C(=O)N[C@@H](C)C(N)=O)C(C)C)C(=O)O` [Compound 1] (H-H[Aib]HGTFTSDYSKYLDSK([γGlu-Palmitoyl])AAHDFVEWLLSA-NH2) came in with a half-maximal effective concentration (EC50) of 0.21 nM. Next, `CCCCCCCCCCCCCCCC(=O)N[C@@H](CCC(=O)NCCCC[C@H](NC(=O)[C@H](CO)NC(=O)[C@H](CC(=O)O)NC(=O)[C@H](CC(C)C)NC(=O)[C@H](Cc1ccc(O)cc1)NC(=O)[C@H](CCCCN)NC(=O)[C@H](CO)NC(=O)[C@H](Cc1ccc(O)cc1)NC(=O)[C@H](CC(=O)O)NC(=O)[C@H](CO)NC(=O)[C@@H](NC(=O)[C@H](Cc1ccccc1)NC(=O)[C@@H](NC(=O)CNC(=O)[C@H](C)NC(=O)C(C)(C)NC(=O)[C@@H](N)Cc1c[nH]cn1)[C@@H](C)O)[C@@H](C)O)C(=O)N[C@@H](C)C(=O)N[C@@H](C)C(=O)N[C@@H](Cc1c[nH]cn1)C(=O)N[C@@H](CC(=O)O)C(=O)N[C@@H](Cc1ccccc1)C(=O)N[C@H](C(=O)N[C@@H](CCC(=O)O)C(=O)N[C@@H](Cc1c[nH]c2ccccc12)C(=O)N[C@@H](CC(C)C)C(=O)N[C@@H](CC(C)C)C(=O)N[C@@H](CO)C(=O)N[C@@H](C)C(N)=O)C(C)C)C(=O)O` [Compound 17] (H-H[Aib]AGTFTSDYSKYLDSK([γGlu-Palmitoyl])AAHDFVEWLLSA-NH2): 0.09 nM.

Broadly, the EC50 is the concentration that produces a half-maximal response.
